Laboratory results as given in ChEMBL document CHEMBL6109167, “Novel PARP7 Inhibitors for Treating Cancer” (ACS Med Chem Lett, 2025).

These compounds were tested against T1, Protein mono-ADP-ribosyltransferase TIPARP (Homo sapiens, UniProt Q7Z3E1) (assay: Inhibition of PARP7 in human NCI-H1373 cells assessed as increase in STAT1 phosphorylation at Tyr701 incubated for 48 hrs by LANCE Ultra sandwich assay).
T1 sequence (Q7Z3E1 whole entry): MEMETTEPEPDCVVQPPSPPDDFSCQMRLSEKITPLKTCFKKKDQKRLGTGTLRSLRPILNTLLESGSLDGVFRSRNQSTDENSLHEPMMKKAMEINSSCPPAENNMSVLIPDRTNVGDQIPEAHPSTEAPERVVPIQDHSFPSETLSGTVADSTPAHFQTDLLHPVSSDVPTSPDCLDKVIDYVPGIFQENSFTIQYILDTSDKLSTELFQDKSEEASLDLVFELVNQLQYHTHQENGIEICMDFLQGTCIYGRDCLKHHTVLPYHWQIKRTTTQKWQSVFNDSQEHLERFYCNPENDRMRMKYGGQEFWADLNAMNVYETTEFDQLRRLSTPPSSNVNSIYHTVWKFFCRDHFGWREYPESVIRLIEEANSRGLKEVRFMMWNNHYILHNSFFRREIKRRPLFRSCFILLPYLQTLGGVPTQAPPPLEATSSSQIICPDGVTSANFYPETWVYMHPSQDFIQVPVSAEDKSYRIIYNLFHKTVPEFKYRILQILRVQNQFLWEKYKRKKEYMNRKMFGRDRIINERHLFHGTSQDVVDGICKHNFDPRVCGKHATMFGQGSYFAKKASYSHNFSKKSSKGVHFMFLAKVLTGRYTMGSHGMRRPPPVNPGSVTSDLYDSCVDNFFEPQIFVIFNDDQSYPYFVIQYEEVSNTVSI
Format: cell-based

Row | EC50 [pM] | SMILES
1 | 786 | C[C@@H](C[C@H](F)Cn1ccc2cc(-c3ncc(C(F)F)c(N)n3)c(F)cc2c1=O)Oc1cn[nH]c(=O)c1C(F)(F)F
2 | 620 | C[C@@H](C[C@@H](F)Cn1ccc2cc(-c3ncc(Cl)cn3)c(F)c(F)c2c1=O)Oc1cn[nH]c(=O)c1C(F)(F)F
3 | 460 | C[C@@H](C[C@@H](F)Cn1ccc2cc(-c3ncc(C(F)F)cn3)c(F)c(F)c2c1=O)Oc1cn[nH]c(=O)c1C(F)(F)F
4 | 667 | C[C@@H](C[C@@H](F)Cn1ccc2cc(-c3ncc(C(C)(F)F)cn3)c(F)c(F)c2c1=O)Oc1cn[nH]c(=O)c1C(F)(F)F
5 | 375 | COc1cnc(-c2cc3ccn(C[C@H](F)C[C@H](C)Oc4cn[nH]c(=O)c4C(F)(F)F)c(=O)c3c(F)c2F)nc1
6 | 420 | C[C@@H](C[C@H](F)Cn1cc(F)c2cc(-c3ncc(C(F)F)c(N)n3)c(F)cc2c1=O)Oc1cn[nH]c(=O)c1C(F)(F)F
